Assay results reported in PubChem BioAssay (NCI).
Where “and” joins values, the source holds several entries; their conditions need not be identical. Equal values may be shown once.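 Five concentrations, 48 hours, 96-well plates. GI50 marks 50% less growth. TGI denotes the concentration required for complete inhibition of growth.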

Experiments:
Experiment in all cases: growth of human tumour cells (NCI), 48 h
CAKI-1 renal = tested on: CAKI-1 renal
MOLT-4 leukemia = tested on: MOLT-4 leukemia
ACHN renal = tested on: ACHN renal
SN12C renal = tested on: SN12C renal
A498 renal = tested on: A498 renal
RXF 393 renal = tested on: RXF 393 renal
PC-3 prostate = tested on: PC-3 prostate
OVCAR-3 ovarian = tested on: OVCAR-3 ovarian
MALME-3M melanoma = tested on: MALME-3M melanoma
HOP-62 NSCLC = tested on: HOP-62 NSCLC

Row | Structure (SMILES) | GI50 (CAKI-1 renal) | TGI (CAKI-1 renal) | GI50 (MOLT-4 leukemia) | TGI (MOLT-4 leukemia) | GI50 (ACHN renal) | TGI (ACHN renal) | GI50 (SN12C renal) | TGI (SN12C renal) | GI50 (A498 renal) | TGI (A498 renal) | GI50 (RXF 393 renal) | TGI (RXF 393 renal) | TGI (PC-3 prostate) | GI50 (OVCAR-3 ovarian) | TGI (OVCAR-3 ovarian) | GI50 (MALME-3M melanoma) | TGI (MALME-3M melanoma) | GI50 (HOP-62 NSCLC) | TGI (HOP-62 NSCLC) | GI50 (PC-3 prostate)
1 | COc1ccc2nc3cc([N+](=O)[O-])ccc3c(NCCCN(CCO)CCO)c2c1 | 10.9 µM | 22.8 µM | 2.59 µM | 5.99 µM | 10 µM | 23 µM | 3.92 µM | 14.7 µM | 18 µM | 38.6 µM | 2.93 µM | 11.5 µM | 20.1 µM | 5.53 µM | 12.3 µM | 2.21 µM | 5.3 µM | 11.4 µM | 24.1 µM | –
2 | Clc1ccc(C(c2ccc(Cl)cc2)N2CCNCC2)cc1 | – | 17.4 µM | – | 5 µM | – | 5.74 µM | – | 8.52 µM | – | 4.2 µM | – | 9.75 µM | 7.15 µM | – | 4.13 µM | – | 3.12 µM | – | 3.71 µM | –
3 | C[n+]1c2ccccc2c(Nc2ccc(NS(=O)(=O)CCCCN=C(N)N)cc2)c2ccc(N)cc21 | 10.1 µM | > 100 µM | 0.0212 µM | – | 2.79 µM | > 100 µM | 0.0443 µM | > 100 µM | 0.32 µM | 31.4 µM | 15.7 µM | > 70.8 µM | > 100 µM | 10.2 µM | > 80.2 µM | 4.06 µM | 35.2 µM | 0.217 µM | 26.6 µM | 8.47 µM
4 | COc1cc(F)cc([C@@H](CO)NC(=O)[C@@H](C)N2Cc3ccc(-c4nc(NC5CCOCC5)ncc4Cl)cc3C2=O)c1 | 1.93 µM | 69.1 µM | 7.42 µM | 34.1 µM | 1.54 µM | 99.1 µM | 1.33 µM | > 100 µM | 0.0878 µM | 5.86 µM | 0.205 µM | 19.8 µM | 98.2 µM | 16.5 µM | > 68.6 µM | < 0.01 µM | < 0.01 µM | 0.0519 µM | > 86.2 µM | 9.69 µM
5 | NC(=S)N/N=C/c1ccc(O)cn1 | 32.1 µM and 21.8 µM and 8.53 µM | 178 µM and 339 µM | 6.5 µM and 3.19 µM and 1.36 µM | – | 4.14 µM | 40.8 µM and 16.1 µM | 8.5 µM and 7.93 µM | 312 µM and 119 µM | 12.4 µM and 36 µM | 131 µM and 292 µM | 20.5 µM and 83.3 µM and 14.6 µM | > 1500 µM and 552 µM | > 1500 µM | 19.9 µM and 5.16 µM | > 1500 µM and 240 µM | 31 µM and 13.4 µM | 113 µM and 138 µM | 10.6 µM and 5.65 µM | 35.7 µM and 16.9 µM and 74.6 µM | –
6 | COc1ccc(-c2nn(-c3cccc(Cl)c3)cc2-c2c(C#N)c(=O)n3[nH]c(-c4ccc(C)cc4)nc3c2C#N)cc1 | 2.46 µM | 10.4 µM | 0.752 µM | 5.46 µM | 2.41 µM | 12.6 µM | 4.52 µM | 11.5 µM | 0.575 µM | 7.63 µM | 0.858 µM | 2.48 µM | 9.26 µM | 6.52 µM | 13.7 µM | 2.16 µM | 9.12 µM | 0.884 µM | 2.19 µM | 1.7 µM
7 | O=C(O)c1ccc2c3c(ncnc13)-c1ccccc1C2=O | > 81.1 µM | > 100 µM | > 100 µM | > 100 µM | 25.7 µM | > 100 µM | 4.26 µM | > 87.2 µM | 1.96 µM | 10.9 µM | > 47.2 µM | > 100 µM | > 100 µM | 31.2 µM | > 100 µM | 0.517 µM | 1.58 µM | 1.76 µM | 3.75 µM | 43.3 µM
8 | c1ccc(Nn2c(CCCCCCCCc3nnc(COc4ccccc4)n3Nc3ccccc3)nnc2COc2ccccc2)cc1 | 5.11 µM and 2.73 µM | 59.1 µM and 34.8 µM | 14.5 µM | > 300 µM | 2.89 µM and 5.83 µM | > 300 µM | 35.5 µM and 66.6 µM | > 300 µM | 37.6 µM | > 300 µM | 157 µM | 98 µM and > 300 µM | > 300 µM | 16.5 µM and 41.2 µM | > 300 µM | 27.5 µM and 25.7 µM | > 300 µM | – | > 300 µM | 8.32 µM and 23.9 µM
9 | O=c1oc(-c2ccccc2)cc2cccc(O)c12 | 37.3 µM | > 81.7 µM | 66.3 µM | > 100 µM | 25.9 µM | > 73.1 µM | 19.4 µM | 51.2 µM | 21 µM | 48 µM | 24.8 µM | > 70.9 µM | > 100 µM | 25.2 µM | 85.8 µM | 69.4 µM | > 100 µM | 19.5 µM | 40.9 µM | 40.6 µM
10 | CCOC(=O)NC1=C(N2CC2)C(=O)C(NC(=O)OCC)=C(N2CC2)C1=O | 2.53 µM and 3.42 µM | 13.2 µM and 18.3 µM and 23.7 µM | 3.25 µM | 12.6 µM and 11 µM | 1.32 µM and 1.06 µM | 20.3 µM and 12.7 µM and 23.6 µM | 3.3 µM and 3.06 µM | 25 µM and 14.2 µM and 7.15 µM | 8.08 µM and 5.41 µM | 20.3 µM and 9.75 µM and 12.5 µM | 13 µM and 5.74 µM | 25 µM and 14.4 µM and 12.9 µM | 16.2 µM | 5.91 µM and 5.8 µM | 17.4 µM and 12.9 µM and 16.1 µM | 5.79 µM | 18 µM and 18.3 µM and 15.6 µM | 1.56 µM and 1.75 µM | 15.1 µM and 7.44 µM and 2.9 µM | –
11 | CSc1n(Cc2ccc3ccccc3c2)c(C)c[n+]1Cc1ccc2ccccc2c1 | 1.49 µM | 2.97 µM | 1.11 µM | 3.01 µM | 1.9 µM | 3.77 µM | 0.523 µM | 1.87 µM | 1.13 µM | 2.93 µM | 0.938 µM | 2.47 µM | 2.17 µM | 0.445 µM | 1.63 µM | 0.472 µM | 1.73 µM | 1.39 µM | 3.01 µM | 0.563 µM
12 | O=C(NCCN1CCC(O)CC1)c1cc2c(o1)C(=O)c1ccccc1C2=O | 1.28 µM | 2.66 µM | 0.383 µM | 1.74 µM | – | – | 0.175 µM | 0.354 µM | 0.17 µM | 0.34 µM | 1.1 µM | 2.32 µM | 2.39 µM | 0.242 µM | 0.658 µM | 0.0272 µM | 0.0885 µM | 0.23 µM | 0.51 µM | 0.294 µM
13 | CN1CCN(C(=O)c2c(NC(=O)NS(=O)(=O)c3ccccc3)sc3c2CCCCC3)CC1 | 20.3 µM | 54.4 µM | > 100 µM | > 100 µM | 30.7 µM | > 100 µM | 25 µM | 63.8 µM | 28.8 µM | 65.8 µM | 34 µM | > 100 µM | > 100 µM | 39.6 µM | > 100 µM | – | – | – | – | 30.6 µM
